The values below come from patent publication US20090111854A1, “1,2,4-TRIAZOLE ARYL N-OXIDES DERIVATIVES AS MODULATORS OF MGLUR5” (AstraZeneca AB, priority 2007, published 2009).

Data set [1] deals with T1, human mGluR5d (Homo sapiens, UniProt P41594).
T1 construct: expressed in transfected cells; The culture medium contains hygromycin B and Zeocin as selection agents; The separate IP3 assay names 'GHEK stably expressing the human mGluR5d'
Description: FLIPR assay, functional assessment of mGluR5 antagonism (intracellular calcium mobilization). The settings on record: cells expressing human mGluR5d; read-out: FLIPR hmGluR5d. The data set is classed as cell-based. An excerpt: Functional Assessment of mGluR5 Antagonism it Cell Lines Expressing mGluR5D
The properties of the compounds of the invention can be analyzed using standard assays for pharmacological activity. Examples of glutamate receptor assays are well known in the art as described in for example Aramori et al., Neuron 8:757 (1992), Tanabe et al., Neuron 8:169 (1992), Miller et al., J. Neuroscience 15: 6103 (1995), Balazs, et al., J. Neurochemistry 69:151 (1997). The methodology described in these publications is to incorporated herein by reference. Conveniently, the compounds of the invention can be studied by means of an assay (FLIPR) that measures the mobilization of intracellular calcium, [Ca^2+]i in cells expressing mGluR5 or another assay (IP3) that measures inositol phosphate turnover.
Cells expressing human mGluR5d as described in WO97/05252 cultured in a mixture of high glucose DMEM with Glutamax (31966-021) (500 mL), 10% dialyzed fetal bovine serum (Hyclone #SH30079.03)(56 mL), 200 μg/mL Hygromycin B (Invitrogen 45-0430, 50 mg/mL) (2.2 mL), 200 μg/mL Zeocin (Invitrogen #R250-01; 100 mg/mL)(1.1 mL) are seeded at a density of 100,000 cells per well on collagen coated clear bottom 96-well plates with black sides and cells were allowed to adhere over night before experiments. All assays are done in a buffer containing 146 mM NaCl, 5 mM KCl, 1 mM MgCl2, 1 mM CaCl2, 20 mM HEPES, 1 mg/mL glucose and 1 mg/mL BSA Fraction IV (pH 7.4). Cell cultures in the 96-well plates are loaded for 60 minutes in the above mentioned buffer containing 6 μM of the acetoxymethyl ester form of the fluorescent calcium indicator fluo-3 (Molecular Probes, Eugene, Oreg.) in 0.025% pluronic acid (a proprietary, non-ionic surfactant polyol—CAS Number 9003-11-6). […] The fluorescence signal is sampled 50 times at 1-second intervals followed by 3 samples at 5-second intervals immediately after each of the two additions. Responses are measured as the difference between the peak heights of the response to agonist, less the background fluorescence within the sample period. […]

The nature of data set [2]: Determination of brain to plasma ratio in rat. As to conditions: female, Sprague Dawley, brain and plasma, read-out: Brain/Plasma Ratio of compound in Rat. The data set is classed as in vivo, female Sprague Dawley rats. Here is the method:
Brain to plasma ratios are estimated in female Sprague Dawley rats. The compound is dissolved in water or another appropriate vehicle. For determination of brain to plasma ratio the compound is administrated as a subcutaneous, or an intravenous bolus injection, or an intravenous infusion, or an oral administration. At a predetermined time point after the administration a blood sample is taken with cardiac puncture. The rat is terminated by cutting the heart open, and the brain is immediately retained. The blood samples are collected in heparinized tubes and centrifuged within 30 minutes, in order to separate the plasma from the blood cells. The plasma is transferred to 96-well plates and stored at −20° C. until analysis. The brains are divided in half, and each half is placed in a pre-tarred tube and stored at −20° C. until analysis. Prior to the analysis, the brain samples are thawed and 3 mL/g brain tissue of distilled water is added to the tubes. The brain samples are sonicated in an ice bath until the samples are homogenized. Both brain and plasma samples are precipitated with acetonitrile. After centrifugation, the supernatant is diluted with 0.2% formic acid. Analysis is performed on a short reversed-phase HPLC column with rapid gradient elution and MSMS detection using a triple quadrupole instrument with electrospray ionisation and Selected Reaction Monitoring (SRM) acquisition. Liquid-liquid extraction may be used as an alternative sample clean-up. The samples are extracted, by shaking, to an organic solvent after addition of a suitable buffer. An aliquot of the organic layer is transferred to a new vial and evaporated to dryness under a stream of nitrogen. After reconstitution of the residuals the samples are ready for injection onto the HPLC column.

Bounds are passed on as bounds.

T1 sequence (P41594 21-942 isoform P41594-3 limits assumed): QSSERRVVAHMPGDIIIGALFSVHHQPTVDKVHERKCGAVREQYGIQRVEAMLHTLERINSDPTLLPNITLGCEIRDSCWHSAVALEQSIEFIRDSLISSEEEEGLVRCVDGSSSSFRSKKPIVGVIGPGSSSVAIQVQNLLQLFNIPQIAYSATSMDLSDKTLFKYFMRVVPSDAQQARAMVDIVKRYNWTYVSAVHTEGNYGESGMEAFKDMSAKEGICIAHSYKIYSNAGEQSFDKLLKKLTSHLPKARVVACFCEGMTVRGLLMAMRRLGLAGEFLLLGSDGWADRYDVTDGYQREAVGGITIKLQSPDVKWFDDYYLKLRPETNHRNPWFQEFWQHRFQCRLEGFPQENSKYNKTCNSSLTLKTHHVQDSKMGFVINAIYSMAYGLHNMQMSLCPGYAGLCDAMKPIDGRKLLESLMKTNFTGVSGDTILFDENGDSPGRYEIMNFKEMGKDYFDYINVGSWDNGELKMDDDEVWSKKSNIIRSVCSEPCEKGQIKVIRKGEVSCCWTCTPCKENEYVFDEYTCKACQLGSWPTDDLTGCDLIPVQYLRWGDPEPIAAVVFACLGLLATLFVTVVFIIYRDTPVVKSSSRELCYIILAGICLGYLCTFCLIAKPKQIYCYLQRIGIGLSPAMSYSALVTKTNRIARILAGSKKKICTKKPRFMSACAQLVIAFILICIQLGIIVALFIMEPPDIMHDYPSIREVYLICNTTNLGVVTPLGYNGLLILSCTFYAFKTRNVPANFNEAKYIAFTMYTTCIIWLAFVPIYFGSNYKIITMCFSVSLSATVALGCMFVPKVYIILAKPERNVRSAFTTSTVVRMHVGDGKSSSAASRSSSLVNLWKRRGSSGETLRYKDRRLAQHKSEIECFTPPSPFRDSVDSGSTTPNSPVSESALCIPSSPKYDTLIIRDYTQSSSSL

As for `Cn1c(-c2ccc[n+]([O-])c2)nnc1N1CCC[C@@H]1c1nnn(-c2cccc(Cl)c2)n1` [Example 6, 3-(5-{(2R)-2-[2-(3-chlorophenyl)-2H-tetrazol-5-yl]pyrrolidin-1-yl}-4-methyl-4H-1,2,4-triazol-3-yl)pyridine 1-oxide], in data set [1], the IC50 worked out at 108 nM. Besides, the Kp in data set [2] is less than 0.01.

Take `C[C@@H](c1noc(-c2cccc(Cl)c2)n1)N(C)c1nnc(-c2cc[n+]([O-])cc2)n1C` [Example 4, N-{(1S)-1-[5-(3-chlorophenyl)-1,2,4-oxadiazol-3-yl]ethyl}-N,4-dimethyl-5-(1-oxidopyridin-4-yl)-4H-1,2,4-triazol-3-amine]: in data set [1], the IC50 came to 81 nM. Besides, in data set [2], the Kp turned out to be 0.01.

For the molecule `Cn1c(-c2ccc[n+]([O-])c2)nnc1N1CCCC[C@@H]1c1nnn(-c2cccc(Cl)c2)n1` [Example 5, 3-(5-{(2R)-2-[2-(3-chlorophenyl)-2H-tetrazol-5-yl]piperidin-1-yl}-4-methyl-4H-1,2,4-triazol-3-yl)pyridine 1-oxide], the IC50 in data set [1] stood at 49 nM. Moreover, the Kp in data set [2] is less than 0.015.
